Source: PubChem BioAssay (NCI)
Several values for one entry are separate records, joined by “and”; a condition that tells them apart may be missing. Equal values may be shown once.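 These data come from cells grown in 96-well plates and exposed to compound for 48 hours at five concentrations. GI50 marks 50% less growth. The concentration for full growth arrest is given as TGI.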

Assays:
Assay in all cases: growth of human tumour cells (NCI), 48 h
ACHN renal = test system: ACHN renal
BT-549 breast = test system: BT-549 breast
HCT-116 colon = test system: HCT-116 colon
HS 578T breast = test system: HS 578T breast
HT29 colon = test system: HT29 colon
NCI-H522 lung = test system: NCI-H522 lung
OVCAR-3 ovarian = test system: OVCAR-3 ovarian
OVCAR-5 ovarian = test system: OVCAR-5 ovarian
SR leukemia = test system: SR leukemia
TK-10 renal = test system: TK-10 renal

Row | SMILES | TGI (ACHN renal) [µM] | TGI (BT-549 breast) [µM] | TGI (HCT-116 colon) [µM] | TGI (HS 578T breast) [µM] | TGI (HT29 colon) [µM] | TGI (NCI-H522 lung) [µM] | TGI (OVCAR-3 ovarian) | TGI (OVCAR-5 ovarian) [µM] | TGI (SR leukemia) [µM] | TGI (TK-10 renal) [µM] | GI50 (NCI-H522 lung) | GI50 (OVCAR-3 ovarian) | GI50 (ACHN renal) [µM] | GI50 (BT-549 breast) [µM] | GI50 (HS 578T breast) [µM] | GI50 (HT29 colon) [µM] | GI50 (OVCAR-5 ovarian) [µM] | GI50 (SR leukemia) [µM] | GI50 (TK-10 renal) [µM]
1 | O=C(O)c1cc(N=Nc2ccc([N+](=O)[O-])cc2)ccc1O | > 100 | > 100 | > 100 | > 100 | > 100 | > 100 | 39.8 µM | > 100 | > 100 | 70 |  |  |  |  |  |  |  |  | 
2 | COc1ccc(/C=C2/N=C(N/N=C\C(O)C(O)C(O)CO)NC2=O)cc1 (configuration not stated) | > 100 | > 100 | > 100 | > 100 | > 100 | > 100 | > 100 µM and 67.8 µM | > 100 | > 100 | > 100 | > 100 µM and 34.2 µM | > 100 µM and 24.3 µM |  |  |  |  |  |  | 
3 | COc1ccc2c(c1)CC[C@@H]1[C@@H]2CC[C@]2(C)/C(=N/OCCN3CCCC3)CC[C@@H]12 | 15.5 | 22.4 | 3.43 | 7.29 | 3.96 | 11.5 | 16.2 µM | 10.1 | 4.49 | 16.9 |  |  |  |  |  |  |  |  | 
4 | N/C(=N\N=C\c1cc2ccccc2s1)c1cnccn1 | > 100 | > 100 | > 100 | > 100 | > 100 | > 100 | > 100 µM | > 100 | > 100 | > 100 |  |  |  |  |  |  |  |  | 
5 | Cc1cc(OCc2nc(N)nc(N)c2-c2ccc(Cl)c(Cl)c2)ccc1[N+](=O)[O-] | 2.37 | 12.2 | 16 | > 88.2 | 18.1 | 10.6 | 3.29 µM | 47 | 0.106 | 13.4 |  |  |  |  |  |  |  |  | 
6 | Cc1ccc(S(=O)(=O)NC(=O)Nc2c(S(N)(=O)=O)cc(S(N)(=O)=O)c(Cl)c2Cl)cc1 | > 100 | > 100 | > 100 | > 100 | > 100 | > 100 | > 100 µM | > 100 | > 100 | > 100 |  |  |  |  |  |  |  |  | 
7 | Cc1c(C)c2c(c(C)c1OC(=O)CCC(=O)[O-])CCC(C)(CCCCCCCCCCC[P+](c1ccccc1)(c1ccccc1)c1ccccc1)O2 (configuration not stated) | 0.909 | 0.678 |  | 1.31 | 2.07 | 1.51 | 0.542 µM | 0.836 | 9.05 | 1.18 | 0.153 µM | 0.145 µM | 0.264 | 0.14 | 0.18 | 0.166 | 0.22 | 0.261 | 0.244
8 | O=S(=O)(O)c1ccc2c(N=Nc3cccc4ccccc34)c(O)ccc2c1 | > 100 | > 100 | > 100 | > 100 | > 100 | > 100 | > 100 µM | > 100 | > 100 | > 100 |  |  |  |  |  |  |  |  | 
9 | Cc1ccc(C2(O)c3ccccc3C(=O)N(C)C2(O)c2ccc(C)cc2)cc1 (configuration not stated) |  | > 100 | > 100 | 46.9 | > 100 | > 100 | > 100 µM | > 100 | 13.2 | > 100 |  |  |  |  |  |  |  |  | 
10 | COc1ccccc1C1C2=C(COC2=O)Oc2cc3c(cc21)OCO3 (configuration not stated) | > 100 | > 100 | > 100 | 13.3 | 8.53 | 8.11 | 16.7 µM | > 92.4 | > 100 | > 90.5 |  |  |  |  |  |  |  |  | 
11 | Cc1cccc2c(N)c3cccc(C(=O)NCC[N+](C)(C)Cc4ccc([N+](=O)[O-])n4C)c3nc12 | 56.1 | > 71.3 | 68.3 | 41 | 59 | 35.8 | > 73.1 µM | > 70.8 | 36.6 | > 100 |  |  |  |  |  |  |  |  | 
12 | CC(=O)Nc1ccc(NC(=O)CC(=O)Nc2ccc(NC(C)=O)cc2)cc1 | > 100 | > 100 | > 100 | > 100 | > 100 | > 100 | > 100 µM |  | > 100 | > 100 |  |  |  |  |  |  |  |  | 
13 | O=c1oc2ccc([N+](=O)[O-])cc2nc1/C=C(\O)c1ccccc1 | > 100 | > 100 | > 100 | > 100 | > 100 | > 100 | > 100 µM | > 100 | > 100 | 93.4 |  |  |  |  |  |  |  |  | 
14 | Cc1cc(C)cc(Nc2nnc3n2S(=O)(=O)c2cc(C)c(Cl)cc2S3)c1 | 47.8 | 70.9 | > 100 | 26.9 | > 100 | 22.6 | 17.5 µM | > 100 | 13.9 | 38.5 |  |  |  |  |  |  |  |  | 
15 | c1ccc(-c2csc3c2-n2cccc2C3N2CCCC2)cc1 (configuration not stated) | > 100 | 34.4 | > 100 | > 100 | > 100 | > 100 | > 100 µM | > 100 | > 100 | 99.7 |  |  |  |  |  |  |  |  | 
16 | N=c1c2sc3nc4ccccc4n3c2ncn1Cc1ccccc1 | > 100 | > 100 | > 100 | > 100 |  | > 100 | > 100 µM | > 100 | > 100 | > 100 |  |  |  |  |  |  |  |  | 
17 | OC1(c2ccccc2)CC2CCC(C1)N2CCCC(O)(c1ccccc1)c1ccccc1 (configuration not stated) | 31.5 | 26.3 | 36.1 | 18.7 | 9.64 | 27.9 | 30 µM | 44.4 | > 100 | 25.8 |  |  |  |  |  |  |  |  | 
18 | CN(C(=O)[C@H](NC(=O)OCc1ccccc1)c1ccccc1)C1CCCCC1N1CCCC1 (some centres not stated) | > 100 | > 100 | > 100 | 77.2 | > 100 | > 100 | > 100 µM | > 100 | 87.6 | > 100 |  |  |  |  |  |  |  |  | 
19 | C=C1C(=O)OC2C1CCC(=C)C1CC(O)C(=C)C12 (configuration not stated) | 7.99 | 30.4 | 26.4 | > 100 | 19.3 | 6.39 | 27.9 µM | 26.3 | 10.8 | 20.6 |  |  |  |  |  |  |  |  | 
